Patent US20080026049A1, “LIPOSOMAL COMPOSITIONS FOR PARENTERAL DELIVERY OF AGENTS” (priority 2005, published 2008)

Test: physchem
Settings: HBS, aqueous buffer

Clc1ccc(COC(Cn2ccnc2)c2ccc(Cl)cc2Cl)cc1 (stereo not shown) [econazole, [(dichloro-2,4 phenyl)-2(chloro-4 benzoyloxy)-2 ethyl]-1 imidazole nitrate]
solubility: < 100 µg/mL
